Laboratory results from patent publication US6790825B2, “Method of using secretin and compositions made therefrom for the treatment of autism and other neurological, behavioral and immunological disorders” (Repligen Corporation, priority 1997, dated 2004).
Entries after “also recorded” stand apart in the source; their conditions may differ. No end group written: not given here.

Experiments:
[1] = test system: patient, a child with symptoms of autism; experiment: Intravenous secretin infusion in a child with symptoms of autism (Example 1): behavioral and biomedical changes; assay type: in vivo, human
Excerpt: The present invention will be better understood from the following examples which are given by way of illustration and not by way of limitation. The patient, the same in both examples, is a child with symptoms of autism.
The patient in the present examples developed normally […], with the exception of gastrointestinal problems (i.e., chronic diarrhea and constipation) which began at about six months. At about thirteen months, when whole milk was introduced into their diet, the patient began having reoccurring ear infections. At about fourteen months, the patient appeared to lose the ability to process language, first receptively (at about 14 months) then expressively (at about 16 months). The patient also experienced episodes of “shivers” that appeared to be intermittent seizures.
After consulting with numerous neurologists, pediatricians, child development specialists, audiologists, endocrinologists, allergists, and other medical professionals, no consistent diagnosis had been reached. […] The term autism is used herein for reference purposes only, and this invention is intended to apply to any number of pervasive developmental disorders as well as neurological and immunological disorders.
(§1) When the patient was […], the secretin was administered by way of an infusion as part of an upper gastrointestinal endoscopy. The secretin was used in this diagnostic procedure at the request of the patient's parents, one of which is an inventor of the present invention. The secretin used in this procedure is known as Secretin-Ferring available from Ferring Laboratories, Inc., Suffern, N.Y. (See Appendix A). The secretin was dissolved in a […] solution of sodium chloride and administered in a dosage of 2 clinical units (CU) per kilogram (kg) body weight by intravenous injection over one minute. (I.E. 30 IU IV for approximately 15 kilograms of body weight.)
(§2) The diagnostic tests performed on the patient during this procedure also indicated gastric inflammation. […] The following Table I summarizes the improvements observed in the patient within 3 weeks after the infusion of secretin.
Biomedical changes were also measured in the patient.
At the request of the patient's parents, a second infusion of secretin was performed about 9 months after the first infusion, and a third infusion of secretin was performed about three months after the second infusion.

pancreas = experiment: Pancreatic juice release after secretin infusion during upper gastrointestinal endoscopy (Example 1); assay type: in vivo, human; settings: immediately after 2 CU/kg i.v. over one minute; usual rate 1-2 ml/min
Experimental: as §1, §2

[2] = test system: patient, a child with symptoms of autism; experiment: Daily transdermal secretin with DMSO in the same patient (Example 2); assay type: in vivo, human
Experimental: At the time of this treatment, the patient was […]. Secretin was administered transdermally using pharmaceutical grade dimethyl sulfoxide (DMSO) (generally 99.9% pure) available from Clinic Service Co., Box 2512, Hemet Calif. 92543. The secretin (Secretin-Ferring) was administered daily in a dosage of about 75 CU over a five day period (i.e., about 15 CU daily). For each treatment, about 4 drops of DMSO were placed onto the skin of the patient, about 15 CU of the crystalline secretin was placed onto the DMSO, and the composition was rubbed into the skin.

abnormal opioid peptides = settings: autistic children that responded to casein free and gluten free diet; measured before and after infusion; cited from earlier work

Substance: secretin (HSDGTFTSELSRLRDSARLQRLLQGLV-NH2; ends and bridges not checked; UniProt P63298 33-59, looked up) [polypeptide hormone secreted by the mucosa of the duodenum and upper jejunum; used as Secretin-Ferring from Ferring Laboratories]
- SPECT scan: perfusion of the right posterior parietal and right temporal lobes (blood flow in the brain) ([1]; after the infusion): improved; also recorded: increased blood flow in the brain
- Measles, mumps and rubella antibodies ([1]; after the secretin administration in Example 1): reduction of measles, mumps and rubella antibodies
- Rubella titers ([1]; after the treatment, dropped from 5.8 before): 2.3
- Rate of the patient's progress ([1]; at about 5 weeks after the first infusion, behavioral improvements continued): appeared to decrease
- Progress within 3 weeks after the secretin infusion: bowel movements ([1]; before infusion: Abnormal bowel movements, 2 CU/kg i.v.): Normal bowel movements.
- Progress within 3 weeks after the secretin infusion: sleeping problems ([1]; before infusion: Consistent sleeping problems, up numerous times each night, 2 CU/kg i.v.): Has slept through almost every night
- Progress within 3 weeks after the secretin infusion: toilet training ([1]; before infusion: Diapers only, 2 CU/kg i.v.): Completely potty trained.
- Progress within 3 weeks after the secretin infusion: imitation of commands ([1]; before infusion: Did not imitate commands, 2 CU/kg i.v.): Will imitate almost any multi-step
- Progress within 3 weeks after the secretin infusion: spinning episodes ([1]; before infusion: Infrequent (1-2 times/week) spinning episodes, 2 CU/kg i.v.): No spinning episodes.
- Progress within 3 weeks after the secretin infusion: diet preferences ([1]; before infusion: Limited Diet Preferences, 2 CU/kg i.v.): No Change
- Progress within 3 weeks after the secretin infusion: eye contact ([1]; before infusion: Minimal eye contact, 2 CU/kg i.v.): Eye contact 75% of the time.
- Progress within 3 weeks after the secretin infusion: connections between language and objects ([1]; before infusion: No apparent connections made, 2 CU/kg i.v.): Many connections made between
- Progress within 3 weeks after the secretin infusion: flash cards ([1]; before infusion: No flash cards, 2 CU/kg i.v.): 40-50 flash cards.
- Progress within 3 weeks after the secretin infusion: interest in drawing ([1]; before infusion: No interest in drawing, 2 CU/kg i.v.): Wants to draw constantly. Will draw
- Progress within 3 weeks after the secretin infusion: response to request for gestures ([1]; before infusion: No response, 2 CU/kg i.v.): Responds to all kinds of things
- Progress within 3 weeks after the secretin infusion: sentences ([1]; before infusion: No sentences, 2 CU/kg i.v.): Short sentences - such as; “I love you”,
- Progress within 3 weeks after the secretin infusion: words spoken ([1]; before infusion: Two words, 2 CU/kg i.v.): 100's of words - will repeat some
- Progress within 3 weeks after the secretin infusion: interaction with videos ([1]; before infusion: Watch Videos, 2 CU/kg i.v.): Now, gets “involved” interactively
- Serotonin levels in blood ([1]; blood tests after the treatment): rise in serotonin levels; also recorded: increase in serotonin levels
- Progress within 3 weeks after the secretin infusion: water consumption ([1]; no change, before infusion: excessive, approximately 50 cups per day, 2 CU/kg i.v.): change approximately 50 cups per cups per day
- Results of second and third infusions ([1]; second about 9 months after the first, third about three months after the second): achieved the same results
- Chronic abnormal bowel movements ([1]; within days after administration, no change of diet): became normal
- Amount of pancreatic juice released (pancreas): approximately 10 ml/min
- Improvements in the patient on daily transdermal administration ([2]; about 15 CU daily with about 4 drops DMSO rubbed into the skin, compared with infusion): even more dramatic and significant improvements
- Effect of stopping the daily dose ([2]; daily transdermal dose stopped): autistic behavioral symptoms return
- Language progress ([2]; within about 6 months, about 15 CU daily transdermally with DMSO): progressed to spontaneous and conversational language
- Abnormal opioid peptides after the secretin infusion (abnormal opioid peptides): disappeared
